Test results reported in US5114967A, “Antibiotic alisamycin and its use” (Hoechst Aktiengesellschaft, priority 1990, dated 1992).
In brackets after ≈: the same amount, converted by molar mass.

What was measured:
[1] = system: Staphylococcus aureus E88; test: agar-well method in Antibiotic Assay medium; details: E88, read-out: Zone diam
[2] = system: Streptococcus faecalis 23241; details: Enterococcus faecalis
Botrytis cinerea 47 [3] = test: agar-well method in Antibiotic Assay medium; details: Botrytis cinerea, 47, read-out: Zone diam
Piriicularia oryzae [4] = assay type: cell-based
[5] = system: Streptococcus faecalis UD8b; details: Enterococcus faecalis
Candida albicans [6] = test: agar-well method in Antibiotic Assay medium; details: read-out: Zone diam
[7] = system: Streptococcus faecalis Eder; details: Enterococcus faecalis
Candida albicans [8] = system: Candida albicans
[9] = system: Streptococcus faecalis Eder; test: agar-well method in Antibiotic Assay medium; details: Enterococcus faecalis, read-out: Zone diam
solubility = assay type: physicochemical
gram-negative bacteria = test: antibacterial activity (general statement); assay type: cell-based
[10] = system: Staphylococcus aureus 20424
[11] = system: Streptococcus faecalis UD8b; test: agar-well method in Antibiotic Assay medium; details: Enterococcus faecalis, read-out: Zone diam
[12] = system: Staphylococcus aureus 209 p
[13] = system: Staphylococcus aureus 209 p; test: agar-well method in Antibiotic Assay medium; details: read-out: Zone diam
gram-positive bacteria = test: antibacterial activity (general statement); assay type: cell-based
[14] = system: Staphylococcus aureus 20424; test: agar-well method in Antibiotic Assay medium; details: Staphylococcus aureus, 20424, read-out: Zone diam
Botrytis cinerea 47 [15] = system: Botrytis cinerea 47
[16] = system: Staphylococcus aureus E88
[17] = system: Streptococcus faecalis 23241; test: agar-well method in Antibiotic Assay medium; details: Enterococcus faecalis, 23241, read-out: Zone diam
Piriicularia oryzae [18] = test: agar-well method in Antibiotic Assay medium; assay type: cell-based

Which results are given for `O=C(/C=C/C=C/C1CCCCC1)NC1=CC(O)(/C=C/C=C/C=C/C(=O)NC2=C(O)CCC2=O)C2OC2C1=O` (centres unmarked) [Alisamycin]?
zone of inhibition at 32 µg/mL [1]: 14 mm; zone of inhibition at 500 µg/mL [1]: 27 mm; MIC [2]: 6.4 µg/mL (≈ 12.3 µM); antiparasitic activity (antiparasitic activity): antiparasitic activities; zone of inhibition at 500 µg/mL (Botrytis cinerea 47 [3]): 20 mm; MIC (Piriicularia oryzae [4]): > 50 µg/mL; MIC [5]: > 50 µg/mL; zone of inhibition at 500 µg/mL (Candida albicans [6]): 10 mm; MIC [7]: 6.4 µg/mL (≈ 12.3 µM); antitumor activity (antitumor activity): found to have antitumor; MIC (Candida albicans [8]): 50 µg/mL (≈ 96 µM); zone of inhibition at 32 µg/mL [9]: 16 mm; zone of inhibition at 500 µg/mL [9]: 23 mm; solubility (solubility; acetonitrile): fairly soluble; solubility (solubility; chloroform): fairly soluble; solubility (solubility; dimethylsulfoxide): very soluble; solubility (solubility; ethanol): poorly soluble; solubility (solubility; ethyl acetate): fairly soluble; solubility (solubility; hexane): poorly soluble; solubility (solubility; methanol): poorly soluble; solubility (solubility; methylene chloride): fairly soluble; solubility (solubility; petroleum ether): poorly soluble; solubility (solubility; propylene glycol): very soluble; solubility (solubility; water): poorly soluble; activity against gram-negative bacteria (gram-negative bacteria): active; MIC [10]: 3.2 µg/mL (≈ 6.15 µM); zone of inhibition at 32 µg/mL [11]: 13 mm; zone of inhibition at 500 µg/mL [11]: 16 mm; MIC [12]: 1.6 µg/mL (≈ 3.07 µM); zone of inhibition at 32 µg/mL [13]: 18.5 mm; zone of inhibition at 500 µg/mL [13]: 26 mm; activity against gram-positive bacteria (gram-positive bacteria): active; MIC (Escherichia coli 9632): > 50 µg/mL; zone of inhibition at 32 µg/mL [14]: 19 mm; zone of inhibition at 500 µg/mL [14]: 25 mm; MIC (Botrytis cinerea 47 [15]): > 50 µg/mL; MIC [16]: 6.4 µg/mL (≈ 12.3 µM); zone of inhibition at 32 µg/mL [17]: 13 mm; zone of inhibition at 500 µg/mL [17]: 22 mm; zone of inhibition at 32 µg/mL (Piriicularia oryzae [18]; 32 μg/ml): 11 mm; zone of inhibition at 500 µg/mL (Piriicularia oryzae [18]; 500 μg/ml): 15 mm
